According to patent publication US10098352B2, “Honeybee repellents and uses thereof” (Inscent, Inc., priority 2011, dated 2018):

What was measured:
OBP2 = test: Fluorescent-quench ligand-protein-binding assay (OBP2 binding screen); parameters: species or system Apis mellifera; key: Low, indicates no detectable binding to OBP2.; Moderate, indicates that 50% or less of the compound bound to OBP2.; Strong, indicates that 51% or more of the compound bound to OBP2
From the text: To identify a honeybee repellent disclosed herein, candidate compounds were screened based upon the fact that 2-heptanone is an established repellent of bees. 2-heptanone is thought to mediate its behavioral response through binding to a specific odorant-binding protein called OBP2. Therefore compounds that bind OBP2 have the potential to act as odor “mimics” of 2-heptanone. By utilizing a fluorescent-quench, ligand-protein-binding assay, 30,000 compounds from the DIVERSET® library (ChemBridge Corp., San Diego, Calif.), a chemical library, were screened and over 150 candidate compounds were isolated that bind OBP2 (Table 1). Such assays are generally known in the art. See, e.g., Briand, et al., Ligand-Binding Properties and Structural Characterization of a Novel Rat Odorant-Binding Protein Variant, Eur. J. Biochem. 267(10): 3079-3089 (2000); Briand, et al., Ligand Binding and Physico-Chemical Properties of ASP2, A Recombinant Odorant-Binding Protein From Honeybee (Apis mellifera L.), Eur. J. Biochem. 268(3): 752-760 (2001); Briand, et al., Characterization of a Chemosensory Protein (ASP3c) from Honeybee (Apis mellifera L.) as a Brood Pheromone Carrier, Eur. J. Biochem. 269(18): 4586-4596 (2002), each of which is hereby incorporated by reference in its entirety.

[1] = test system: Apis mellifera Carniolan foraging worker honeybees; test: Proboscis extension response (PER) assay in bees conditioned to 2-heptanone; format: in vivo; conditions: for 2-heptanone positive bees testing positive to compound: final compound concentration 0.5% (TRITON X-100/water), 4 s exposure, only bees PER-positive to 2-heptanone and negative to controls counted
Procedure: To determine whether a living honeybee can recognize a candidate compound, these compounds were tested using a proboscis extension response (PER) assay using classical conditioning approaches. Proboscis extension response conditioning is a case of appetitive learning, in which bees learn to associate odor stimuli with sucrose reward in the laboratory. In this case, bees were conditioned to produce a PER to 2-heptanone as the conditioned stimulus and a sugar reward as the unconditioned stimulus. These trained bees were then exposed to an odor pulse of a candidate compound to test whether a candidate compound would also produce a PER. If the candidate compound “mimics” 2-heptanone then the honeybee will extend its proboscis.
For conditioning procedures, Apis mellifera Carniolan foraging worker honeybees were obtained from a local apiary (typically 60 bees per shipment). The honeybees were held overnight in insect cages with food and water freely available, in an environmentally controlled room on a light cycle similar to the ambient cycle at the time of the assay.
For conditioning procedures, all tests were done in an odorant delivery apparatus set inside a fume hood. The apparatus comprised a set of open-ended, horizontal, 3 cm diameter by 10 cm long plastic tubes. Each tube was designed where a honeybee could be positioned at the distal end of a tube, with the opening at the other end of the tube located proximal to an inlet of the fume hood. To deliver an odorant, room air was pumped by a diaphragm pump through a particle filter via 0.25 inch plastic tubing at approximately 0.7 m/sec. The air flow passes into the headspace above an odorant (0.5% [v/v]2-heptanone dissolved in odorless light paraffin oil) contained in a 100 mL bottle. The headspace air then passes through another plastic tube to a manifold of 4-way valves, each of which was attached near the proximal end of a plastic tube containing a bee. Each bee was exposed separately for a desired time period to the odorant by opening and closing the appropriate valve. When each valve was closed, the odor was flushed away immediately by the continuous fume hood air stream.
To train a honeybee to respond to a conditioned and unconditioned stimuli, bees were placed, without anesthesia, in individual 1.5 mL micro-centrifuge holding tubes and held overnight without access to food or water. The holding tubes containing the starved bees were placed in racks in groups of eight. One rack at a time was placed behind the odorant delivery apparatus so that each bee's head is centered at the distal end of a horizontal plastic tube. Each bee was exposed to the 2-heptanone odorant alone for four seconds, and then while being fed an 80% sucrose solution for and additional three seconds. The sucrose solution was delivered on a piece of saturated filter paper held in forceps. […] Positive and negative responses were recorded. A positive PER was scored when a bee extended its proboscis before the sucrose appeared. In a typical trial, 48 individual bees were subjected to conditioning. Six rounds of training were done before testing began, and typically a majority of the bees were successfully conditioned by the second or third round of training.
After conditioning, honeybees were tested with the candidate compounds the same day or on the following day or, most commonly, both. When held overnight, bees were fed with sucrose and kept in their holding tubes. When tested the day after training, bees were given one or more rounds of conditioning with 2-heptatone to refresh their memories. Candidate compounds stocks were made at 5% (w/v) in polyoxyethylene octyl phenyl ether (TRITON® X-100), a non-ionic detergent/surfactant, and stored at 4° C. This detergent is similar to substances used as carriers for a variety of commercial pest-control agents, can act as a solvent for both hydrophilic and hydrophobic substances, and is itself nearly odorless. […]

[2] = test system: Apis mellifera Carniolan foraging worker honeybees; test: Choice test in free-flight box apparatus; format: in vivo; conditions: for Repellence Score: percent food-weight change vs corresponding dishes in preceding test; for Effectiveness at 10-fold lower concentration: 0.05% compared with 0.5%
Procedure: To determine whether living honeybees will choice to move towards a source of a candidate compound, these compounds were assayed using a choice test in a free-flight box apparatus.
All tests were done in a free-flight box apparatus. The apparatus comprises a 244 cm long×46 cm deep×30 cm high clear plastic box including two equally-sized independent testing chambers, each with 10 cm diameter air inlets that admit filtered room air, separated by a smaller central chamber with a screened air outlet to each testing chamber. Air can be pulled through the sealed box via a 10 cm diameter duct from the air outlet using an AQE Fume Fighter 500 fume extractor (BPA Air Quality Solutions, LLC, Charleston, S.C.), which removes the test odors using activated charcoal and HEPA filters. The box is housed in an environmentally controlled room with overhead illumination timed to correspond to the current ambient light cycle including 2 additional sets of lights timed to approximate crepuscular lighting conditions. The bottom of the apparatus was lined with clean absorbent paper marked with a 4×9 grid pattern, forming 12 cm×12 cm squares with marked coordinates.
Apis mellifera Carniolan foraging worker honeybees were obtained from a local apiary (typically 60 bees per shipment). Thirty honeybees were put into each testing chamber and were allowed to acclimate for 24 hours with food and water freely available.
At the beginning of each test day all food was removed from the test chamber, but water was continually available throughout all tests. For each test, approximately 0.3 g of organic, raw orange blossom honey was added to each clean small plastic weigh boat (Cole-Palmer). The honey boats were placed in small plastic culture dishes, which were distributed in the marked squares in the chambers. The positions of the dishes on the grid for a set of trials was chosen to avoid the bees' preferred resting area so that they had to find the food actively, but the same dish positions were maintained for a given set of trials. […] The honey in each boat was weighed on an analytical balance before and after the test, with the screened sample as a control for evaporative loss. The fume extractor was left off during the experimental trails, and was turned on to clear the air after the test dishes were covered and removed from the chamber at the end of each trial.
Based on the observation that bees tend to return to dishes in the same position where they have fed before, each set of trials with each group of bees began with “Pattern Identification” tests to see which dishes lose the most weight, reflecting the most feeding. Once bees were consuming an acceptable amount in 10-15 min, typically in 1-2 trials, we began a set of test compound trials. The test compound was pipetted onto pieces of filter paper placed on the dish bottom below the boat containing a fresh, weighed honey sample so that the test compound was inaccessible to the bees. We used 2 μL of a candidate compound at a concentration of 0.05-0.5%, in Triton X-100 or paraffin oil, on each of four pieces of filter paper per dish. The test-solution dishes were set at the same positions as the one or two dishes favored in the preceding Pattern Identification trial. To eliminate interference from the solvent, the other dishes without the test substance contained the same volume of the appropriate solvent on filter papers as the test solution dishes. The bees were allowed to feed for 10-15 minutes. Bee movements were recorded by a small, wide-angle digital video camcorder (HD Hero 960; GoPro, Halfmoon Bay, Calif.) placed on a tripod in front of the test chamber. The bees were given a brief rest while the honey was weighed and a second test was begun with fresh dishes, except that the test compound-containing dish or dishes were placed at whichever positions were most visited in the preceding test. […] The bees were then rested for 1-3 hours and a subsequent set of trials begun with another Pattern Identification. […]

[3] = amount 0.5%, negative = increase in food consumption

| Compound | OBP2 binding characteristic of compound (OBP2) | 2-heptanone positive bees testing positive to compound [1] [%] | Repellence Score ([2]; amount 0.1%) [%] | Effectiveness at 10-fold lower concentration [2] | Repellence Score ([2]; amount 0.05%) [%] | Repellence Score [2, 3] [%] | % Positive in PER ([1]; PER score as repeated in Table 3) [%] |
| --- | --- | --- | --- | --- | --- | --- | --- |
| COc1ccc(CN2CCN(Cc3ccccc3)CC2)c(C)c1C [compound 7, 1-benzyl-4-(4-methoxy-2,3-dimethylbenzyl)piperazine] | Moderate (Moderate, indicates that 50% or less of the compound bound to OBP2.) | 39.0 | 62.0 | – | – | – | – |
| O=[N+]([O-])c1ccc(C=Cc2ccc(O)cc2)cc1 [compound 2, 4-[2-(4-nitrophenyl)vinyl]phenol] | Moderate (Moderate, indicates that 50% or less of the compound bound to OBP2.) | 31.5 | – | significantly more effective | 57.7 | 37.6 | – |
| COc1ccc(C(=O)C=Cc2cn(C)c3ccccc23)cc1 [compound 50, 1-(4-methoxyphenyl)-3-(1-methyl-1H-indol-3-yl)-2-propen-1-one] | – | 22.2 | – | – | – | 55.7 | – |
| COc1ccc(C(=O)C=Cc2c(C)[nH]c3ccccc23)cc1 [compound 1, 1-(4-methoxyphenyl)-3-(2-methyl-1H-indol-3-yl)-2-propen-1-one] | Moderate (Moderate, indicates that 50% or less of the compound bound to OBP2.) | 26.6 | – | – | – | 57.8 | – |
| CC(=O)c1cc(Cl)ccc1OC(=O)c1ccc(C)cc1 [compound 40, 2-acetyl-4-chlorophenyl 4-methylbenzoate] | Moderate (Moderate, indicates that 50% or less of the compound bound to OBP2.) | 34.3 | – | – | – | 54.6 | 30.5 |
| COc1cc(C=NO)ccc1Oc1ccc([N+](=O)[O-])cc1 [compound 3, 3-methoxy-4-(4-nitrophenoxy)benzaldehyde oxime] | – | 14.5 | – | – | – | 49.8 | – |
| O=[N+]([O-])c1cc2c(cc1CN1CCN(c3ccccc3)CC1)OCO2 [compound 26] | – | 14.8 | – | significantly more effective | 60.0 | 58.6 | – |
| O=C(Nc1ccccc1)Nc1ccccc1C#Cc1ccccc1 [compound 57] | Moderate (Moderate, indicates that 50% or less of the compound bound to OBP2.) | 16.7 | – | – | – | – | – |
| COC(=O)C=C(C)NC(=O)c1ccc(F)cc1 [compound 59] | Moderate (Moderate, indicates that 50% or less of the compound bound to OBP2.) | 16.7 | – | – | – | – | – |
| COc1ccc(CN2CCN(C)CC2)c(C)c1C [compound 25] | Low* | 6.6 | – | – | – | – | – |
| COc1ccc(CN2CCN(c3cccc(C)c3C)CC2)c(C)c1C [compound 29] | Low* | 0.0 | – | – | – | – | – |
| COc1ccc(CN2CCOCC2)c(C)c1C [compound 33] | Low* | 8.5 | – | – | – | – | – |
| O=C(COC(=O)c1ccccc1)c1cccc(Br)c1 [compound 54] | Moderate (Moderate, indicates that 50% or less of the compound bound to OBP2.) | 9.1 | – | – | – | – | – |
| COc1ccc2oc(C)c(C(=O)c3ccc(Br)cc3)c2c1 [compound 17] | Strong (Strong, indicates that 51% or more of the compound bound to OBP2.) | 6.2 | – | – | – | – | – |
| CC1=CC(C)(C)N(C(=O)c2ccc(Br)cc2)c2ccccc21 [compound 11] | Moderate (Moderate, indicates that 50% or less of the compound bound to OBP2.) | 4.8 | – | – | – | – | – |
| c1ccc(CCN(Cc2ccccc2)Cc2cccnc2)cc1 [compound 39] | Moderate (Moderate, indicates that 50% or less of the compound bound to OBP2.) | 1.9 | – | – | – | – | – |
| Cc1cc(O)c(C2=Nc3ccccc3SC(c3ccc(O)cc3)C2)c(=O)o1 (stereo not shown) [compound 35] | Moderate (Moderate, indicates that 50% or less of the compound bound to OBP2.) | 9.0 | – | – | – | – | – |
